These results are taken from US20240173346A1, “LINE-1 INHIBITORS TO TREAT CNS AND SYSTEMIC DISEASES” (TRANSPOSON THERAPEUTICS, INC., priority 2021, published 2024).

Where a name gives a salt, the structure may show the parent alone. Read-outs that look alike come from different tables or passages of the source.

For the assay, the system named is human LINE-1. Put plainly: Human LINE-1 retrotransposition assay (HeLa cell-based dual-luciferase reporter, plasmid pYX017). The note with it: HeLa cells; for IC50: 72 h incubation. The procedure:
Islatravir and other compounds were tested for inhibition of retrotransposition activity of human LINE-1 in HeLa cells according to the following procedure.
HeLa cervical cancer cells were cultivated at 37° C. in a humidified 5% CO2 incubator in Dulbecco's Modified Eagle's Medium (DMEM)—high glucose, with 4500 mg/L glucose, L-glutamine, sodium pyruvate and sodium bicarbonate (Sigma), supplemented with 10% of heat inactivated fetal bovine serum (Thermo Fisher).
Assays were performed using reporter plasmid pYX017 as described (Xie, et al., 2011) with several modifications. The reporter assay was performed in 96-well white optical bottom plates. HeLa cells were seeded in wells 24 h prior to transfection and compound treatment so that cells were approximately 30% confluent on the day of transfection. Different cell plating densities were tested and a density of 2×10^3 cells was determined to be optimal.
Compounds were resuspended in DMSO. Serial dilutions (1:3) were prepared in DMSO. Medium containing different concentrations of the compounds were prepared by adding 2 μl of the compound dilution to 1 ml of the culture medium. The final concentration of DMSO in the medium was 0.2%.
FuGENE® HD transfection reagent (Promega, E2311, Lot 382574 and Lot 397842) was used to transfect the plasmids into the cells. The transfection reagent: DNA mixture was prepared in OpiMEM (Thermo Fisher) according to manufacturer's instructions. Different ratios of transfection reagent to DNA were tested and a ratio of 3:1 was determined to be optimal. Culture medium was removed from the cells and discarded. The transfection reagent: DNA mixture (5 μl) was mixed with the compound containing medium (100 μl/well) and this was added onto the cells of each well. Cells were incubated at 37° C./5% CO2 for different incubation time. A 72 h incubation time was determined to be optimal.
Luciferase reporter activity was quantified with the Dual-Luciferase® Reporter Assay System (Promega) according to manufacturer's instructions for multiwell plates except that cells were lysed directly on the multiwell plate with 30 μl of the passive lysis buffer (PLB) for 20 min at room temperature, with gentle shaking to ensure complete cell lysis.
Firefly and Renilla luciferase signals were measured using a SpectraMax i3x Multi-Mode Microplate Reader. Integration times of 100 ms and 10 ms were used to measure the Firefly and Renilla signals respectively. Relative L1 activity is calculated as Firefly/Renilla *1000 or Firefly/Renilla *10,000. Dose response inhibition data were fit to a four parameter logistic equation using non-linear regression (using Graphpad Prism 8), to determine IC50 values for each inhibitor.
For orientation: Reporter assays use an easily measured gene product as a stand-in for the process of interest.

Setting [1] is: Homo sapiens, Firefly/Renilla luciferase, experiment 3, read-out: Human LINE-1 IC50, Exp. 3.
[2] abbreviates: Homo sapiens, Firefly/Renilla luciferase, experiment 4, read-out: Human LINE-1 IC50, Exp. 4.
[3] abbreviates: Homo sapiens, average of n = 2-4 experiments, read-out: Human LINE-1 IC50, Average.
Setting [4] is: Homo sapiens, Firefly/Renilla luciferase, experiment 2, read-out: Human LINE-1 IC50, Exp. 2.
Setting [5] is: Homo sapiens, Firefly/Renilla luciferase, experiment 1, read-out: Human LINE-1 IC50, Exp. 1.
Setting [6] is: Homo sapiens, compounds of Table 1 (Table 4), read-out: Human LINE-1 IC50.

Usually IC50 stands for the concentration that gives 50% inhibition. In the case of `Nc1nc(NC2CC2)c2ncn([C@H]3C=C[C@@H](CO)C3)c2n1` [Abacavir sulfate], the IC50 under setting [1] turned out to be 16.8 µM and the IC50 under setting [2] was determined as 17.4 µM.
On to `Nc1ccn([C@H]2CO[C@@H](CO)S2)c(=O)n1` [Apricitabine], for which the IC50 runs as follows: under setting [1], 7.69 µM; under setting [2], 5.22 µM; under setting [3], 6.46 µM.
Turning to `C#C[C@@]1(CO)C=C[C@H](n2cc(C)c(=O)[nH]c2=O)O1` [Censavudine, 4′-ethynylstavudine], for the setting “comparison in words”, the “human LINE-1 inhibitor activity compared to the other reverse transcriptase inhibitory drugs tested” value is “unexpectedly better human LINE-1 inhibitor activity”. In addition, the IC50 by setting is: under setting [4], 0.09 µM; under setting [1], 0.08 µM; under setting [3], 0.07 µM.
In the case of `Nc1nc(=O)n([C@@H]2C=C[C@H](CO)O2)cc1F` [Elvucitabine], the IC50 worked out at 0.09 µM under setting [5], 0.08 µM under setting [1], 0.11 µM under setting [2] and 0.09 µM under setting [3].
Consider `Nc1nc(=O)n([C@@H]2CS[C@H](CO)O2)cc1F` [Emtricitabine], for which the IC50 runs as follows: under setting [1], 1.39 µM; under setting [2], 1.3 µM.
Turning to `C#C[C@]1(CO)O[C@@H](n2cnc3c(N)nc(F)nc32)C[C@@H]1O` [Islatravir, 2′-deoxy-4′-ethynyl-2-fluoroadenosine], under setting [3], the IC50 was determined as 0.0013 µM.
Regarding `Nc1ccn([C@@H]2CS[C@H](CO)O2)c(=O)n1` [Lamivudine], the IC50 was 0.79 µM under setting [5], 0.87 µM under setting [4], 0.57 µM under setting [1] and 0.34 µM under setting [2].
Regarding `Cc1cn([C@H]2C=C[C@@H](CO)O2)c(=O)[nH]c1=O` [Stavudine], the IC50 came to 0.78 µM under setting [1] and 0.71 µM under setting [2].
Take `CC(C)OC(=O)OCOP(=O)(CO[C@H](C)Cn1cnc2c(N)ncnc21)OCOC(=O)OC(C)C` [Tenofovir disoproxil]: the IC50 runs as follows: under setting [1], 0.14 µM; under setting [2], 0.26 µM.
`C[C@H](Cn1cnc2c(N)ncnc21)OCP(=O)(O)O` [Tenofovir]: the IC50 was 3.31 µM (Firefly/Renilla luciferase, experiment 3, read-out: Human LINE-1 IC50, Exp. 3) and 2.23 µM (Firefly/Renilla luciferase, experiment 4, read-out: Human LINE-1 IC50, Exp. 4).
Take `C#C[C@]1(CO)O[C@@H](n2cc(C)c(N)nc2=O)C[C@@H]1O` [compound 6]: under setting [6], the IC50 stood at 18.6 µM.
Same read-out and setting: under `C=C[C@]1(CO)O[C@@H](n2ccc(N)nc2=O)C[C@@H]1O` [compound 18] stands 0.008 µM; under `CC[C@]1(CO)O[C@@H](n2cc(C)c(=O)[nH]c2=O)C[C@@H]1O` [compound 19], 2 µM.
Still for that read-out and setting: for `CC[C@]1(CO)O[C@@H](n2cnc3c(O)nc(N)nc32)C[C@@H]1O` [compound 20] the value was 0.003 µM.
